Measurements taken from ChEMBL document CHEMBL1777680, “Part 1: N-alkylated glycines as potent α2δ ligands” (Bioorg Med Chem Lett, 2011).

How the values were obtained:
[1] = Displacement of [3H]Gabapentin from alpha2delta calcium channel in pig brain tissue homogenates after 45 mins by scintillation counting; assay type: tissue-based, Sus scrofa
[2] = Volume of distribution in iv dosed rat; assay type: ADME, organism-based; conditions: in vivo
[3] = Half life in iv dosed rat; assay type: ADME, organism-based; conditions: in vivo
[4] = test system: Rattus norvegicus; assay: Unbound clearance in iv dosed rat; assay type: ADME, organism-based; conditions: in vivo
[5] = Tmax in iv dosed rat; assay type: ADME, organism-based; conditions: in vivo

SMILES: O=C(O)CNCCSc1ccc(Cl)cc1
- IC50 [1]: 195 nM

SMILES: O=C(O)CNCCOc1ccc(Cl)cc1
- IC50 [1]: 6590 nM

SMILES: O=C(O)CNCCSc1ccc(F)cc1
- IC50 [1]: 2500 nM

SMILES: O=C(O)CNCCSc1ccc(Br)cc1
- IC50 [1]: 59 nM

SMILES: O=C(O)CNCCSc1ccccc1
- IC50 [1]: 5400 nM

SMILES: O=C(O)CNCCSc1ccc2ccccc2c1
- Vd [2]: 0.6 L/kg
- half-life [3]: 66 min
- CL free [4]: 23 mL/min/kg
- IC50 [1]: 22 nM
- Tmax [5]: 15 min

SMILES: O=C(O)CNCCSc1cccc(Br)c1
- IC50 [1]: 428 nM

SMILES: O=C(O)CNCCSc1ccc2ccncc2c1
- IC50 [1]: 83 nM

SMILES: N#Cc1ccc(SCCNCC(=O)O)cc1
- IC50 [1]: 680 nM

SMILES: NCc1ccc(SCCNCC(=O)O)cc1
- IC50 [1]: 900 nM

SMILES: C[C@@H](CNCC(=O)O)Oc1ccc(Br)cc1
- IC50 [1]: 441 nM

SMILES: C[C@H](CNCC(=O)O)Oc1ccc(Br)cc1
- IC50 [1]: 6670 nM

SMILES: CC(CNCC(=O)O)Oc1ccc(Cl)cc1 (racemic)
- IC50 [1]: 523 nM

SMILES: CCC(CNCC(=O)O)Oc1ccc(Br)cc1 (racemic)
- IC50 [1]: 214 nM

SMILES: CCC(CNCC(=O)O)Oc1cccc(Cl)c1 (racemic)
- IC50 [1]: 40 nM
